{
  "source": "paper PMC6433648",
  "about": "(British Journal of Pharmacology, 2019)",
  "key": {"rat Nluc‐A1AR [1]": {"molecular_target": "T1, rat Nluc‐A1AR (Rattus norvegicus, UniProt P25099)", "T1 sequence (P25099 2-326 limits assumed)": "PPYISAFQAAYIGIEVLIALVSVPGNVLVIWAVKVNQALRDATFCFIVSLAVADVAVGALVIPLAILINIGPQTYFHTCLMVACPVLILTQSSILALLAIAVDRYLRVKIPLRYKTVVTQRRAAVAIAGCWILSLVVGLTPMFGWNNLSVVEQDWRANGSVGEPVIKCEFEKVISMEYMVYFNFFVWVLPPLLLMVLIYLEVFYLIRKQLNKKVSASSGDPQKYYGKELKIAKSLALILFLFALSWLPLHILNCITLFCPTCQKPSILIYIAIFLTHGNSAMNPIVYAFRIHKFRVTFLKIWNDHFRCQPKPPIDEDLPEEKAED", "experiment": "Fluorescent agonist saturation binding in presence/absence of allosteric modulator (NanoBRET)", "design": "expressed in transfected cells; key to B max: Bmax expressed as BRET ratio from saturation fit", "conditions": "Rat Nluc A1R", "from_the_text": "(§1) Pooled fluorescent agonist saturation assays obtained in the presence and absence of a fixed concentration of allosteric modulator were simultaneously fitted to the following equation: BRET ratio=Bmax×B/B+KD+M×B+C."}, "human Nluc‐A1AR [2]": {"molecular_target": "T2, human Nluc‐A1AR (Homo sapiens, UniProt P30542)", "T2 sequence (P30542 2-326 limits assumed)": "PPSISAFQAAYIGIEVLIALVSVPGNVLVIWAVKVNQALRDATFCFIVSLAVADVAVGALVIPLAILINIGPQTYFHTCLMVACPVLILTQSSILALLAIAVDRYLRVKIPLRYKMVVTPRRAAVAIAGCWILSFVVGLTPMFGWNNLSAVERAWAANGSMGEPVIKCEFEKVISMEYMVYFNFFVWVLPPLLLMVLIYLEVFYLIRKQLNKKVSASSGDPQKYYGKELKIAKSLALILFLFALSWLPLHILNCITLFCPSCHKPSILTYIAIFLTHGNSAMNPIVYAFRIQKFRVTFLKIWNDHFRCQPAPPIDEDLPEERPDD", "experiment": "Fluorescent agonist saturation binding in presence/absence of allosteric modulator (NanoBRET)", "design": "expressed in transfected cells; key to B max: Bmax expressed as BRET ratio from saturation fit", "conditions": "Human Nluc A1R", "from_the_text": "as §1"}, "rat Nluc‐A1AR [3]": {"molecular_target": "T1, rat Nluc‐A1AR", "experiment": "NanoBRET competition binding: inhibition of specific binding of CA200645", "experimental": "(§2) The fluorescent antagonist saturation, competition‐binding, allosteric modulator binding cooperativity, and the fluorescent agonist saturations in the presence/absence of allosteric modulator assays were performed on the stably transfected HEK293T cells expressing human or rat Nluc‐A1R. The cells were seeded 24 hr before experimentation in white walled, poly‐D‐lysine coated 96‐well microplates (Thermo Scientific, Loughborough, UK) at a density of 25,000 cells per well.\n(§3) For each experiment, ligands were added simultaneously, and the 96‐well plate was incubated for 1 hr at 37°C (no CO2). Following this, the Nluc substrate furimazine (Promega) was added to give a final concentration of 10 μM and then incubated for 5 min at 37°C. For all experiments, the luminescence and resulting BRET were measured using the PHERAstar FS plate reader (BMG Labtech) using filtered light emissions at 460 nm (80 nm bandpass) and >610 nm (longpass) at room temperature. The raw BRET ratio was calculated by dividing the >610 nm emission by the 460 nm emission."}, "rat Nluc‐A1AR [4]": {"molecular_target": "T1, rat Nluc‐A1AR", "experiment": "cell-based", "conditions": "agonist pIC50, Rat, 25 nM CA200645", "experimental": "as §2, §3"}, "human Nluc‐A1AR [5]": {"molecular_target": "T2, human Nluc‐A1AR", "experiment": "NanoBRET competition binding: inhibition of specific binding of CA200645", "design": "expressed in transfected cells", "conditions": "for IC50: Nluc‐human A1AR, 25 nM CA200645, HEK293T cells; for Ki: read-out: pK i ± SEM (converted); for concentrations producing a small direct inhibition of CA200645 binding: more evident at the human A1‐receptor", "from_the_text": "The IC50 values from competition‐binding curves were used to calculate the K i of the unlabelled ligands using the Cheng–Prusoff equation: Ki=IC50/1+L/KD, where [L] is the concentration of fluorescent ligand in nM, and K D is the dissociation constant of the fluorescent ligand in nM. The K D values used were obtained from the saturation‐binding experiments."}, "human Nluc‐A1AR [6]": {"molecular_target": "T2, human Nluc‐A1AR", "experiment": "cell-based", "experimental": "as §2, §3"}, "human A1‐receptors": {"system": "human A1‐receptors", "design": "method as in May et al., 2010", "conditions": "PD 81,723 10 μM, CHO cells; ref May et al., 2010; cited from earlier work"}, "[7]": {"conditions": "VCP171 0 (control), maximal specific binding (BRET ratio fit)"}},
  "data": [
    {"compound": "CCNC(=O)[C@H]1O[C@@H](n2cnc3c(NCCCCNC(=O)CCCCCNC(=O)COc4ccc(/C=C/C5=[N+]6C(=Cc7ccc(-c8cccs8)n7[B-]6(F)F)C=C5)cc4)ncnc32)[C@H](O)[C@@H]1O", "note": "[ABEA‐X‐BY630]", "values": [
      {"measurement": "B max", "setting": "rat Nluc‐A1AR [1]; PD 81,723 0 (control)", "result": "0.015 ± 0.002"},
      {"measurement": "Kd", "setting": "rat Nluc‐A1AR [1]; PD 81,723 0 (control)", "result": 1820, "unit": "nM"},
      {"measurement": "Kd", "setting": "rat Nluc‐A1AR [1]; VCP171 0 (control)", "result": 891, "unit": "nM"},
      {"measurement": "B max", "setting": "rat Nluc‐A1AR [1]; [7]", "result": "0.010 ± 0.001"},
      {"measurement": "B max", "setting": "rat Nluc‐A1AR [1]; with 10 μM PD 81,723", "result": "0.018 ± 0.002"},
      {"measurement": "B max", "setting": "rat Nluc‐A1AR [1]; with 10 μM VCP171", "result": "0.021 ± 0.002"},
      {"measurement": "B max", "setting": "rat Nluc‐A1AR [1]; with 30 μM PD 81,723", "result": "0.032 ± 0.01"},
      {"measurement": "B max", "setting": "rat Nluc‐A1AR [1]; with 30 μM VCP171", "result": "0.026 ± 0.003"},
      {"measurement": "B max", "setting": "human Nluc‐A1AR [2]; PD 81,723 0 (control)", "result": "0.007 ± 0.001"},
      {"measurement": "Kd", "setting": "human Nluc‐A1AR [2]; PD 81,723 0 (control)", "result": 977, "unit": "nM"},
      {"measurement": "Kd", "setting": "human Nluc‐A1AR [2]; VCP171 0 (control)", "result": 1020, "unit": "nM"},
      {"measurement": "B max", "setting": "human Nluc‐A1AR [2]; [7]", "result": "0.006 ± 0.001"},
      {"measurement": "B max", "setting": "human Nluc‐A1AR [2]; with 10 μM PD 81,723", "result": "0.012 ± 0.003"},
      {"measurement": "B max", "setting": "human Nluc‐A1AR [2]; with 10 μM VCP171", "result": "0.013 ± 0.002"},
      {"measurement": "B max", "setting": "human Nluc‐A1AR [2]; with 30 μM PD 81,723", "result": "0.016 ± 0.004"},
      {"measurement": "B max", "setting": "human Nluc‐A1AR [2]; with 30 μM VCP171", "result": "0.016 ± 0.002"}
    ]},
    {"compound": "O=C(Cc1ccccc1)Nc1nc2ccc(Cl)cc2c2nc(-c3ccco3)nn12", "note": "[MRS1220, N‐[9‐chloro‐2‐(furan‐2‐yl)‐[1,2,4]triazolo[1,5‐c]quinazolin‐5‐yl]‐2‐phenylacetamide]", "values": [
      {"measurement": "IC50", "setting": "rat Nluc‐A1AR [3]", "result": 1950, "unit": "nM"},
      {"measurement": "Ki", "setting": "rat Nluc‐A1AR [3]", "result": 1070, "unit": "nM"}
    ]},
    {"compound": "O=C(CCCCCNC(=O)COc1ccc(/C=C/C2=[N+]3C(=Cc4ccc(-c5cccs5)n4[B-]3(F)F)C=C2)cc1)NCCCCNc1ncnc2c1ncn2[C@@H]1O[C@H](CO)[C@@H](O)[C@H]1O", "note": "[ABA‐X‐BY630]", "values": [
      {"measurement": "B max", "setting": "rat Nluc‐A1AR [1]; PD 81,723 0 (control)", "result": "0.031 ± 0.002"},
      {"measurement": "Kd", "setting": "rat Nluc‐A1AR [1]; PD 81,723 0 (control)", "result": 955, "unit": "nM"},
      {"measurement": "Kd", "setting": "rat Nluc‐A1AR [1]; VCP171 0 (control)", "result": 891, "unit": "nM"},
      {"measurement": "B max", "setting": "rat Nluc‐A1AR [1]; [7]", "result": "0.031 ± 0.014"},
      {"measurement": "B max", "setting": "rat Nluc‐A1AR [1]; with 10 μM PD 81,723", "result": "0.040 ± 0.005"},
      {"measurement": "B max", "setting": "rat Nluc‐A1AR [1]; with 10 μM VCP171", "result": "0.048 ± 0.009"},
      {"measurement": "B max", "setting": "rat Nluc‐A1AR [1]; with 30 μM PD 81,723", "result": "0.054 ± 0.007"},
      {"measurement": "B max", "setting": "rat Nluc‐A1AR [1]; with 30 μM VCP171", "result": "0.072 ± 0.021"},
      {"measurement": "B max", "setting": "human Nluc‐A1AR [2]; PD 81,723 0 (control)", "result": "0.019 ± 0.002"},
      {"measurement": "Kd", "setting": "human Nluc‐A1AR [2]; VCP171 0 (control)", "result": 589, "unit": "nM"},
      {"measurement": "B max", "setting": "human Nluc‐A1AR [2]; [7]", "result": "0.019 ± 0.002"},
      {"measurement": "B max", "setting": "human Nluc‐A1AR [2]; with 10 μM PD 81,723", "result": "0.035 ± 0.005"},
      {"measurement": "B max", "setting": "human Nluc‐A1AR [2]; with 10 μM VCP171", "result": "0.033 ± 0.004"},
      {"measurement": "B max", "setting": "human Nluc‐A1AR [2]; with 30 μM PD 81,723", "result": "0.035 ± 0.008"},
      {"measurement": "B max", "setting": "human Nluc‐A1AR [2]; with 30 μM VCP171", "result": "0.036 ± 0.003"}
    ]},
    {"compound": "N#Cc1c(N)nc(SCc2csc(-c3ccc(Cl)cc3)n2)c(C#N)c1-c1ccc(OCCO)cc1", "note": "[Capadenoson, 2‐amino‐6‐[[2‐(4‐chlorophenyl)‐1,3‐thiazol‐4‐yl]methylsulfanyl]‐4‐[4‐(2‐hydroxyethoxy)phenyl]pyridine‐3,5‐dicarbonitrile]", "values": [
      {"measurement": "IC50", "setting": "rat Nluc‐A1AR [3]", "result": 186, "unit": "nM"},
      {"measurement": "Ki", "setting": "rat Nluc‐A1AR [3]", "result": 102, "unit": "nM"},
      {"measurement": "IC50", "setting": "rat Nluc‐A1AR [4]; PD 81,723 0 (control)", "result": 275, "unit": "nM"},
      {"measurement": "IC50", "setting": "rat Nluc‐A1AR [4]; VCP171 0 (control)", "result": 251, "unit": "nM"},
      {"measurement": "IC50", "setting": "human Nluc‐A1AR [5]", "result": 245, "unit": "nM"},
      {"measurement": "Ki", "setting": "human Nluc‐A1AR [5]", "result": 141, "unit": "nM"},
      {"measurement": "IC50", "setting": "human Nluc‐A1AR [6]", "result": 282, "unit": "nM"}
    ]},
    {"compound": "Nc1scc(-c2cccc(C(F)(F)F)c2)c1C(=O)c1ccccc1", "note": "[VCP171, (2‐amino‐4‐(3‐(trifluoromethyl)phenyl)thiophen‐3‐yl)(phenyl)methanone]", "values": [
      {"measurement": "IC50", "setting": "rat Nluc‐A1AR [3]", "result": 129000, "unit": "nM"},
      {"measurement": "Ki", "setting": "rat Nluc‐A1AR [3]", "result": 70800, "unit": "nM"},
      {"measurement": "IC50", "setting": "human Nluc‐A1AR [5]", "result": 40700, "unit": "nM"},
      {"measurement": "concentrations producing a small direct inhibition of CA200645 binding", "setting": "human Nluc‐A1AR [5]", "result": "10 to 100", "unit": "µM"},
      {"measurement": "Ki", "setting": "human Nluc‐A1AR [5]", "result": 23400, "unit": "nM"}
    ]},
    {"compound": "Nc1sc(-c2ccc(C(=O)NCCCCCCNc3ncnc4c3ncn4[C@@H]3O[C@H](CO)[C@@H](O)[C@H]3O)cc2)c(-c2cccc(C(F)(F)F)c2)c1C(=O)c1ccccc1", "note": "[VCP746, 4‐(5‐amino‐4‐benzoyl‐3‐(3‐(trifluoromethyl)phenyl)thiophen‐2‐yl)‐N‐(6‐(9‐((2R,3R,4S,5R)‐3,4‐dihydroxy‐5‐(hydroxylmethyl)tetrahydro‐furan‐2‐yl)‐9H‐purin‐6‐ylamino)hexyl)benzamide]", "values": [
      {"measurement": "IC50", "setting": "rat Nluc‐A1AR [3]", "result": 17400, "unit": "nM"},
      {"measurement": "Ki", "setting": "rat Nluc‐A1AR [3]", "result": 9550, "unit": "nM"}
    ]},
    {"compound": "Cc1sc(N)c(C(=O)c2cccc(C(F)(F)F)c2)c1C", "note": "[PD 81,723, (2‐amino‐4,5‐dimethylthiophen‐3‐yl)(3‐(trifluoromethyl)phenyl)methanone]", "values": [
      {"measurement": "effect on dissociation of BY630‐ABA", "setting": "human A1‐receptors", "result": "slow the dissociation"},
      {"measurement": "IC50", "setting": "rat Nluc‐A1AR [3]", "result": "> 100000", "unit": "nM"},
      {"measurement": "concentrations producing a small direct inhibition of CA200645 binding", "setting": "human Nluc‐A1AR [5]", "result": "> 100", "unit": "µM"}
    ]}
  ]
}
